SMILES strings stand for the structures.

The test deals with human NaV 1.8 (Homo sapiens, UniProt Q9Y5Y9). The test is described as follows: E-VIPR assay for detecting and measuring NaV inhibition properties. To be noted: E-VIPR assay conducted in the presence of human serum; HEK cells expressing truncated human NaV 1.8; read-out: IC50. In kind it is cell-based. The procedure, abridged:
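Membrane-potential (coumarin/oxonol) readout after 10 s of 10 Hz biphasic electrical stimulation on E-VIPR. Compounds: 11-point 3-fold dilutions, […], 0.625% DMSO, 30 min at room temperature, human serum optional. Cells: HEK expressing truncated human NaV1.8 co-transduced with KIR2.1.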

human NaV 1.8, sequence (Q9Y5Y9 whole entry, looked up, the tested form may be a part): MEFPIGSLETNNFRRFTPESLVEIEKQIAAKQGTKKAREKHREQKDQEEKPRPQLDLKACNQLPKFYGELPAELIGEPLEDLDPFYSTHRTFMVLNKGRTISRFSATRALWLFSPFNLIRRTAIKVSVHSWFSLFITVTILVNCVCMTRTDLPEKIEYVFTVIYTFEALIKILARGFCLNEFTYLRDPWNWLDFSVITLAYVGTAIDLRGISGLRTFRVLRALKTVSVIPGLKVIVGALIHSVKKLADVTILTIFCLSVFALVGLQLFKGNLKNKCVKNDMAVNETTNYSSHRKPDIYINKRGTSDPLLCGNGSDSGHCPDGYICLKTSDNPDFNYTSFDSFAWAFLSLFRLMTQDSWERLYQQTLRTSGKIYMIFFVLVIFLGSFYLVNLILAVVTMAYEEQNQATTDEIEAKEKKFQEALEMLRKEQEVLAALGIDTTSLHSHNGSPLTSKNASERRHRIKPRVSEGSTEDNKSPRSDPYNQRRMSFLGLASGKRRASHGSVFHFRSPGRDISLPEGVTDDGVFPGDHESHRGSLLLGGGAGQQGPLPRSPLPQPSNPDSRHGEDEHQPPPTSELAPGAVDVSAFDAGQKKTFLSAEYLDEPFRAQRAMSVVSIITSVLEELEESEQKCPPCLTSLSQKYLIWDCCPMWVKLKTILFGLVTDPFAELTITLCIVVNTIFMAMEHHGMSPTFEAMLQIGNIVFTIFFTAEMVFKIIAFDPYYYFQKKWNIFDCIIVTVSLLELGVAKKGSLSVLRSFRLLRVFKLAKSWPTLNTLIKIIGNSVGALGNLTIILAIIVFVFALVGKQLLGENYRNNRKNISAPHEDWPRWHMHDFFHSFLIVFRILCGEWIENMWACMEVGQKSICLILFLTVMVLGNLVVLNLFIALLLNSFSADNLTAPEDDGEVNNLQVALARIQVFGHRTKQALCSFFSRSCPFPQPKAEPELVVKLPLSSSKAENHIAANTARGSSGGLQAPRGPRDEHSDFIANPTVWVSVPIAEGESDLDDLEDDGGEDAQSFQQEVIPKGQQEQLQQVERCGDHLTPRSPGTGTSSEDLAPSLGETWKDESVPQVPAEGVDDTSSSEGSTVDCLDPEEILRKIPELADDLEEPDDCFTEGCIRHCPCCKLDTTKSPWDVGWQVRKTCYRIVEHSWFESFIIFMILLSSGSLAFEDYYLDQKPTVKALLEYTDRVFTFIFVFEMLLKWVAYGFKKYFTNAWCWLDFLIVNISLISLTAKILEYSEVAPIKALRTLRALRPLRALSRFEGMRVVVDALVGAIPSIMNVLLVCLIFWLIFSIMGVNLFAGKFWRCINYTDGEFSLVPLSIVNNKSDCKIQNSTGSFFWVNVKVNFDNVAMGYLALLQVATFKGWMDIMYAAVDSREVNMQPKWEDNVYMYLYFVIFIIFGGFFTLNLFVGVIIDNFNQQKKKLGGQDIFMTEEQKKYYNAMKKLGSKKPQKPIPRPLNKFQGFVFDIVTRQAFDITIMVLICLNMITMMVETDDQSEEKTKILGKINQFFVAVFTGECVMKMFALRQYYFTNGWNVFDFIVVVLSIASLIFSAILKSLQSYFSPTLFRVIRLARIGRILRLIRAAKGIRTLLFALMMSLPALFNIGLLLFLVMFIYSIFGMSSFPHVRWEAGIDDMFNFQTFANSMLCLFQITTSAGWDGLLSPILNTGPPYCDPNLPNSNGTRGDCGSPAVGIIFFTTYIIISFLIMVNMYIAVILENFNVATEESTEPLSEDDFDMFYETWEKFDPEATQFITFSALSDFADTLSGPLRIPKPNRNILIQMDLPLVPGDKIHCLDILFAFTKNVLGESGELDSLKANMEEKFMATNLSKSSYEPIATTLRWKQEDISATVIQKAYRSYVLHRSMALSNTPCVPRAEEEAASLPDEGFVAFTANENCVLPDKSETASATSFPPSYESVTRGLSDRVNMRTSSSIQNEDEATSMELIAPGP

Broadly, the IC50 is the concentration at which inhibition is half-maximal. As for `COc1c(Oc2ccc(C3CC3)c(C)c2C(=O)Nc2ccc(C(N)=O)nc2)ccc(OC(F)(F)F)c1F` [Compound 197, 5-[[3-cyclopropyl-6-[3-fluoro-2-methoxy-4-(trifluoromethoxy)phenoxy]-2-methyl-benzoyl]amino]pyridine-2-carboxamide], the IC50 stood at 120 nM. As to `COc1c(Oc2cc(C(F)(F)F)c(OC)c(F)c2C(=O)Nc2cc(C(N)=O)ncc2C)ccc(F)c1F` [Compound 376, 4-[[6-(3,4-difluoro-2-methoxy-phenoxy)-2-fluoro-3-methoxy-4-(trifluoromethyl)benzoyl]amino]-5-methyl-pyridine-2-carboxamide], the IC50 was determined as 9 nM. For the compound `COc1cc(OC(F)(F)F)ccc1Oc1cc(C(F)(F)F)c(OC)nc1C(=O)Nc1ccnc(C(N)=O)c1` [Compound 275, N-(2-Carbamoyl-4-Pyridyl)-6-Methoxy-3-[2-Methoxy-4-(Trifluoromethoxy)Phenoxy]-5-(Trifluoromethyl)Pyridine-2-Carboxamide], the IC50 was determined as 170 nM. The figure for `NC(=O)c1cc(NC(=O)c2c(Oc3ccc(OC(F)(F)F)cc3O)ccc(C(F)(F)F)c2F)cc[n+]1[O-]` [Compound 249, 4-[[2-fluoro-6-[2-hydroxy-4-(trifluoromethoxy)phenoxy]-3-(trifluoromethyl)benzoyl]amino]-1-oxido-pyridin-1-ium-2-carboxamide] is 2930 nM; for `Cc1c(F)ccc(Oc2ccc(C(F)(F)F)c(C)c2C(=O)Nc2ccc(C(N)=O)nc2)c1C` [Compound 231, 5-[[6-(4-fluoro-2,3-dimethyl-phenoxy)-2-methyl-3-(trifluoromethyl)benzoyl]amino]pyridine-2-carboxamide] it is > 3000 nM. The figure for `COc1cc(OC(F)(F)F)ccc1Oc1cc(C2=CCC(C(F)(F)F)CC2)ccc1C(=O)Nc1ccnc(C(N)=O)c1` (centres unmarked) [Compound 1029, 4-[[2-[2-methoxy-4-(trifluoromethoxy)phenoxy]-4-[4-(trifluoromethyl)cyclohexen-1-yl]benzoyl]amino]pyridine-2-carboxamide] is 695 nM.

As for `COc1cc(Oc2cc(C(F)(F)F)ccc2C(=O)Nc2ccnc(C(N)=O)c2)ccc1F` [Compound 167, 4-[[2-(4-fluoro-3-methoxy-phenoxy)-4-(trifluoromethyl)benzoyl]amino]pyridine-2-carboxamide], the IC50 was > 3000 nM. On to `COc1c(Oc2ccc(OC(F)(F)F)c(F)c2C(=O)Nc2ccnc(C(N)=O)c2)ccc(OC(F)(F)F)c1F` [Compound 322, 4-[[2-fluoro-6-[3-fluoro-2-methoxy-4-(trifluoromethoxy)phenoxy]-3-(trifluoromethoxy)benzoyl]amino]pyridine-2-carboxamide], for which the IC50 is 6.1 nM. Then `Cc1cc(Cl)cc(C)c1Oc1ccc(C(F)(F)F)c(F)c1C(=O)Nc1ccc(C(N)=O)nc1` [Compound 208, 5-[[6-(4-chloro-2,6-dimethyl-phenoxy)-2-fluoro-3-(trifluoromethyl)benzoyl]amino]pyridine-2-carboxamide], with > 3000 nM; and `CC(C)Oc1ccc(Oc2ccc(C(F)(F)F)c(F)c2C(=O)Nc2ccnc(C(N)=O)c2)cc1F` [Compound 28, 4-[[2-fluoro-6-(3-fluoro-4-isopropoxy-phenoxy)-3-(trifluoromethyl)benzoyl]amino]pyridine-2-carboxamide], with 24 nM. Turning to `COc1cc(OC(F)(F)F)ccc1Oc1cc(C2CCC(C(F)(F)F)CC2)cc(F)c1C(=O)Nc1ccnc(C(N)=O)c1` (single isomer, unassigned) [168 (first diastereomer), 4-[[2-fluoro-6-[2-methoxy-4-(trifluoromethoxy)phenoxy]-4-[4-(trifluoromethyl)cyclohexyl]benzoyl]amino]pyridine-2-carboxamide], the IC50 amounted to 18 nM. The figure for `[2H]C([2H])([2H])Oc1cc(OC(F)(F)F)ccc1Oc1cc2c(cc1C(=O)Nc1ccnc(C(N)=O)c1)OCCO2` [Compound 1036, 4-[[6-[2-(trideuteriomethoxy)-4-(trifluoromethoxy)phenoxy]-2,3-dihydro-1,4-benzodioxine-7-carbonyl]amino]pyridine-2-carboxamide] is 1750 nM; for `[2H]C([2H])([2H])Oc1cc(OC(F)(F)F)ccc1Oc1cc(C2=COCCC2)cc(F)c1C(=O)Nc1ccnc(C(N)=O)c1` [Compound 1002, 4-[[4-(3,4-dihydro-2H-pyran-5-yl)-2-fluoro-6-[2-(trideuteriomethoxy)-4-(trifluoromethoxy)phenoxy]benzoyl]amino]pyridine-2-carboxamide] it is 30 nM. The figure for `COc1cc(OC(F)(F)F)ccc1Oc1cc(C(F)(F)F)c(C2CC2)nc1C(=O)Nc1ccnc(C(N)=O)c1` [Compound 246, N-(2-carbamoyl-4-pyridyl)-6-cyclopropyl-3-[2-methoxy-4-(trifluoromethoxy)phenoxy]-5-(trifluoromethyl)pyridine-2-carboxamide] is 140 nM. Then `Cc1cc(OC(F)(F)F)ccc1Oc1ccc(C(F)(F)F)c(F)c1C(=O)Nc1ccc(C(N)=O)nc1` [Compound 222, 5-[[2-fluoro-6-[2-methyl-4-(trifluoromethoxy)phenoxy]-3-(trifluoromethyl)benzoyl]amino]pyridine-2-carboxamide], with 120 nM; and `[2H]C([2H])([2H])Oc1cc(OC(F)(F)F)ccc1Oc1cc(-c2cccc(C#N)c2)cc(F)c1C(=O)Nc1ccnc(C(N)=O)c1` [Compound 1011, 4-[[4-(3-cyanophenyl)-2-fluoro-6-[2-(trideuteriomethoxy)-4-(trifluoromethoxy)phenoxy]benzoyl]amino]pyridine-2-carboxamide], with 470 nM; and `COc1c(Cl)cc(Oc2ccc(OC(F)(F)F)c(F)c2OC)c(C(=O)Nc2ccnc(C(N)=O)c2)c1F` [Compound 326, 4-[[4-chloro-2-fluoro-6-[3-fluoro-2-methoxy-4-(trifluoromethoxy)phenoxy]-3-methoxy-benzoyl]amino]pyridine-2-carboxamide], with 1.3 nM. In the case of `COc1cc(Oc2ccc(F)c(F)c2OC)c(C(=O)Nc2ccnc(C(N)=O)c2)c(F)c1C(F)(F)F` [Compound 299, 4-[[6-(3,4-Difluoro-2-Methoxy-Phenoxy)-2-Fluoro-4-Methoxy-3-(Trifluoromethyl)Benzoyl]Amino]Pyridine-2-Carboxamide], the IC50 is 6.4 nM. The figure for `COc1cc(OC(F)(F)F)ccc1Oc1ccc(C(F)(F)F)c(SC)c1C(=O)Nc1ccnc(C(N)=O)c1` [Compound 1025, 4-[[6-[2-methoxy-4-(trifluoromethoxy)phenoxy]-2-methylsulfanyl-3-(trifluoromethyl)benzoyl]amino]pyridine-2-carboxamide] is 2 nM; for `COc1cc(Oc2ccc(OC(F)(F)F)cc2Cl)c(C(=O)Nc2ccnc(C(N)=O)c2)c(F)c1C(F)(F)F` [Compound 368, 4-[[6-[2-Chloro-4-(Trifluoromethoxy)Phenoxy]-2-Fluoro-4-Methoxy-3-(Trifluoromethyl)Benzoyl]Amino]Pyridine-2-Carboxamide] it is 5 nM; for `COc1c(C(F)(F)F)ccc(Oc2ccc(C(F)(F)F)nc2)c1C(=O)Nc1ccnc(C(N)=O)c1` [Compound 70, 4-[[2-methoxy-3-(trifluoromethyl)-6-[[6-(trifluoromethyl)-3-pyridyl]oxy]benzoyl]amino]pyridine-2-carboxamide] it is > 3000 nM. Then `COc1c(Oc2cc3c(c(F)c2C(=O)Nc2ccnc(C(N)=O)c2)OCC(C)(C)O3)ccc(OC(F)(F)F)c1F` [Compound 1040, 4-(5-fluoro-7-(3-fluoro-2-methoxy-4-(trifluoromethoxy)phenoxy)-2,2-dimethyl-2,3-dihydrobenzo[b][1,4]dioxine-6-carboxamido)picolinamide], with 6 nM; and `COc1cc(F)ccc1Oc1ccc(C(F)(F)F)c(OC)c1C(=O)Nc1ccnc(C(N)=O)c1` [Compound 52, 4-[[6-(4-fluoro-2-methoxy-phenoxy)-2-methoxy-3-(trifluoromethyl)benzoyl]amino]pyridine-2-carboxamide], with 170 nM; and `NC(=O)c1cc(NC(=O)c2ccc(C(F)(F)F)cc2Oc2ccc(F)cc2Cl)ccn1` [Compound 161, 4-[[2-(2-chloro-4-fluoro-phenoxy)-4-(trifluoromethyl)benzoyl]amino]pyridine-2-carboxamide], with > 3000 nM. As to `COc1cc(Oc2ccc(C(F)(F)F)c(F)c2C(=O)Nc2ccnc(C(N)=O)c2)ccc1F` [Compound 21, 4-[[2-fluoro-6-(4-fluoro-3-methoxy-phenoxy)-3-(trifluoromethyl)benzoyl]amino]pyridine-2-carboxamide], the IC50 is 1000 nM. Then `COc1cc(OC(F)(F)F)ccc1Oc1cc(C2CCC(C(F)(F)F)CC2)ccc1C(=O)Nc1ccnc(C(N)=O)c1` (single isomer, unassigned) [158 (second diastereomer), 4-[[2-[2-methoxy-4-(trifluoromethoxy)phenoxy]-4-[4-(trifluoromethyl)cyclohexyl]benzoyl]amino]pyridine-2-carboxamide], with 395 nM.

As to `COc1c(Oc2cc(F)c(F)c(F)c2C(=O)Nc2cnc(C(N)=O)nc2)ccc(OC(F)(F)F)c1F` [Compound 308, 5-[[2,3,4-trifluoro-6-[3-fluoro-2-methoxy-4-(trifluoromethoxy)phenoxy]benzoyl]amino]pyrimidine-2-carboxamide], the IC50 worked out at 36 nM. The figure for `COc1c(C(F)(F)F)ccc(Oc2ccc(OC(C)C)cc2)c1C(=O)Nc1ccnc(C(N)=O)c1` [Compound 53, 4-[[6-(4-isopropoxyphenoxy)-2-methoxy-3-(trifluoromethyl)benzoyl]amino]pyridine-2-carboxamide] is 110 nM; for `[2H]C([2H])([2H])Oc1cc(OC(F)(F)F)ccc1Oc1cc(-c2cccc(C(F)(F)F)c2)cc(F)c1C(=O)Nc1ccnc(C(N)=O)c1` [Compound 94, 4-[[2-fluoro-6-[2-(trideuteriomethoxy)-4-(trifluoromethoxy)phenoxy]-4-[3-(trifluoromethyl)phenyl]benzoyl]amino]pyridine-2-carboxamide] it is 39 nM.

(Values after patent publication US12441703B2, “Carboxamides as modulators of sodium channels” (VERTEX PHARMACEUTICALS INCORPORATED, priority 2019, dated 2025).)
